Experimental data published in paper PMC10351538 (Journal of Enzyme Inhibition and Medicinal Chemistry, 2023).

Target: triosephosphate isomerase (TcTIM WT) (Trypanosoma cruzi, UniProt P52270)
Experiment: coupled enzyme assay
Format: biochemical
Details: read-out: approximately 95% inactivation

triosephosphate isomerase (TcTIM WT), sequence (P52270 whole entry): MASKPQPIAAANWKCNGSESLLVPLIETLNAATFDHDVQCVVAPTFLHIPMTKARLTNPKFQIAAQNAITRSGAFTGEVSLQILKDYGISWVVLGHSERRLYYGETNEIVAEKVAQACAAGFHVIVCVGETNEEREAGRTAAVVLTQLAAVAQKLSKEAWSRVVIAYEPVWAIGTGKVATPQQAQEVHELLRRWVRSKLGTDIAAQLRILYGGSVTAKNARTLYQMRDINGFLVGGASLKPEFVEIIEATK

SMILES: COCCCOc1ccnc(C[S+]([O-])c2nc3ccccc3[nH]2)c1C (stereo not shown) [Rbz, rabeprazole]
- IC95: ~75 µM
